Read-outs that look alike come from different tables or passages of the source.

In one assay the test system is [3H]-AEA uptake. Briefly: Cellular uptake of [3H]-AEA in human primary monocytes (assay C). The class given is cell-based. Conditions: Figure 1(a), 1 µM. Here is the method:
(§1) • Figure 1: AEA re-uptake inhibition of 2E,4E-dieneamides 1 and 9 into human primary monocytes and U937 cells. […] Data are mean values ± SEM of 3 independent experiments in a sigmoidal dose-response curve. • Figure 2: Concentration-dependent effects of 4 and 5 on FAAH activity. […] The maximal inhibition (32%) of 5 was measured at 1 µM. Data are mean values ± SEM of 3 independent experiments. • Figure 3: Effects of low nM concentrations of N-alkylamide 7 on FAAH activity alone and in combination with the FAAH inhibitor URB597. […] Data are mean values ± SEM of 3 independent experiments. • Figure 4: 1 and 9 inhibit LPS-induced TNF-alpha release into culture medium (measured by ELISA). Human macrophages (10^6 cells) were stimulated with LPS (500 ng/ml) and treated with UCM707 and/or compounds 1 and 9 at 5 µM for 18 h. N = 3 ± SEM. • Figure 5: UCM707 (positive control) and compounds 1 and 9 diminish NO2^- production. Human macrophages (10^6 cells) were stimulated with LPS (500 ng/ml) and treated with UCM707 and/or compounds 1 and 9 at 5 µM for 18 h. Culture supernatants were assayed for nitrite levels, using the Griess reagent as a reflection of NO production. […]
Human lymphoma U937 cells were grown in RPMI 1640 medium (Invitrogen, Basel, Switzerland) supplemented with 10% fetal bovine serum, […] fungizone (amphotericin B), 100 units/ml penicillin, 100 µg/ml streptomycin, and 2 mM L-glutamine (all from Invitrogen) and selected for the cellular AEA uptake assay. […] The filters-bound radioactivity was measured using a Beckman LS6500 scintillation counter. Results were expressed as % of AEA uptake versus cells treated with solvent and the EC50 and IC50 values were calculated from the sigmoidal curves, which were generated using the GraphPad Prism (GraphPad Software, San Diego, CA, US).

The test system of assay [1] is Arachidonoylethanolamide Transport (AEAT). Briefly: Cellular uptake of [3H]-AEA in U937 cells (assay C). The class given is cell-based. Conditions: Homo sapiens, U-937; [3H]-AEA uptake, assay C (Tables 2 and 3).
The target of another assay is CB2 (Homo sapiens, UniProt P34972). Briefly: Radioligand displacement assay on CB2 receptor. The format is binding. More on the design: purchased Perkin Elmer RBXCB2M. Here is the method: For the CB1 receptor, binding experiments were performed in the presence of 0.39 nM of the radioligand [^3H]CP55,940 (168 Ci/mmol) (Perkin Elmer, Waltham, MA, US) at 30°C in siliconized glass vials together with 7.16 µg of membrane recombinantly over-expressing CB1 (No. RBHCB1M, Perkin Elmer, Waltham, MA, US), which was resuspended in 0.2 mL (final volume) binding-buffer (50 mM TRIS-HCl, 2.5 mM EGTA, 5 mM MgCl2, 0.5 mg/mL fatty acid free BSA, pH 7.4). Test compounds were present at varying concentrations and the nonspecific binding of the radioligand was determined in the presence of 10 µM CP55,940 (Tocris Cookson Ltd., Bristol, UK). After 1.5 h incubation, the suspension was rapidly filtered through 0.05% polyethylenimine pre-soaked GF/C glass fiber filters on a 96-well cell harvester and washed nine times with 0.5 mL ice-cold washing-buffer (50 mM TRIS-HCl, 2.5 mM EGTA, 5 mM MgCl2, 2% BSA, pH 7.4). Radioactivity on filters was measured with a Beckman LS 6500 scintillation counter in 3 mL Ultima Gold scintillation liquid (Perkin Elmer, Waltham, MA, US). Data collected from three independent experiments performed in triplicates were normalized between 100% and 0% specific binding for [^3H]CP55,940. […] Derived from the dissociation constant (KD) of [^3H]CP55,940 and the concentration-dependent displacement (IC50 value), inhibition constants (Ki) of competitor compounds were calculated using the Cheng-Prusoff equation [Ki = IC50/(1+ L/KD)].
Sequence of CB2 (P34972 whole entry): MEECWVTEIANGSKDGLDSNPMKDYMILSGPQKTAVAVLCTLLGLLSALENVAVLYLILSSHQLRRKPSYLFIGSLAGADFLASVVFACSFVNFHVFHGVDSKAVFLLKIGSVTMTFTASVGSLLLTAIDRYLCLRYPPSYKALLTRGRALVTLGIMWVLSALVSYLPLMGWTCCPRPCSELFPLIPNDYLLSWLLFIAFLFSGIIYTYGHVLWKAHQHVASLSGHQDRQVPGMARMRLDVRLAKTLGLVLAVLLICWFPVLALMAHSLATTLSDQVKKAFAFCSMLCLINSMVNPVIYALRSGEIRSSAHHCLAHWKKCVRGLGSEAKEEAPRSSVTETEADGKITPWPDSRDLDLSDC
For CB2-receptor binding studies 3.8 µg of membrane recombinantly over-expressing CB2 (No. RBXCB2M, Perkin Elmer, Waltham, MA, US) were resuspended in 0.6 mL binding buffer (see above) together with 0.11 nM of the radioligand [^3H]CP55,940. The CB2-binding assay was conducted in the same manner as for CB1.
A general note: Loss of bound radioactivity is the signal in a displacement assay; it reports binding, not function.

The next assay deals with TNF-alpha release. Briefly: LPS-induced TNF-alpha release from human macrophages (ELISA). The class given is cell-based. As to conditions: Figure 4; LPS 500 ng/ml; 5 µM for 18 h. As to the method:
as §1

As usually defined, the EC50 is the concentration needed to bring the measured effect to its halfway point. A lower EC50 goes with an effect from little substance. Usually Ki stands for a dissociation constant, usually derived from enzyme kinetics or from competition with a known ligand. In the case of `CCCCCCC/C=C/C=C/C(=O)NCCO` [Example 1, (2E,4E)-N-(2-hydroxyethyl)dodeca-2,4-diene amide], the “[3H]-AEA uptake inhibition” value in assay [3H]-AEA uptake is “potently inhibited”. Besides, in assay [1], a half-maximal response (EC50) required 1.22 ± 0.24 µM. For the same compound, the Ki at CB2 is > 20 µM. For the same compound, in the assay with TNF-alpha release, the “LPS-induced TNF-alpha release into culture medium” value is recorded as “inhibit”.
On to `CCCCCCC/C=C/C=C/C(=O)NCCc1cccc(OC)c1` [Example 9, (2E,4E)-N-(3-methoxyphenethyl)dodeca-2,4-diene amide], for which the “[3H]-AEA uptake inhibition” value in assay [3H]-AEA uptake is “potently inhibited”. For the same compound, the EC50 in assay [1] turned out to be 0.87 ± 0.12 µM. The Ki at CB2 (displacement of 0.11 nM [3H]CP55,940, membrane recombinantly over-expressing CB2, read-out: Receptor affinity Ki CB2) was found to be 9.44 ± 0.889 µM. For the same compound, the “LPS-induced TNF-alpha release into culture medium” value in the assay on TNF-alpha release is on record as “inhibit”.

These data come from patent EP2435019B1, “DODECA-2E,4E-DIENE AMIDES AND THEIR USE AS MEDICAMENTS AND COSMETICS” (Dr. August Wolff GmbH & Co. KG Arzneimittel, priority 2009, dated 2010).
